The values below come from patent US9670223B2, “Compounds with super-aspirin effects” (SOLVOTRIN THERAPEUTICS LTD., priority 2011, dated 2017).

“Also recorded” adds a separate entry of the source. Like-named read-outs stand apart in the source and are kept apart here.

For series [1], the system named is platelet rich plasma (PRP). The series is described as follows: U46619-induced platelet aggregation in PRP. The format is cell-based, human. As to the method: Platelet aggregation was measured by light aggregometry. […] Aggregation was initiated by the addition of agonists, and monitored by Aggro-Link software for at least 6 min.
For series [2], the system named is platelet rich plasma (PRP). The series is described as follows: Collagen-induced platelet aggregation in platelet rich plasma (light aggregometry). It is filed as cell-based. To be noted: Homo sapiens, collagen (5 µg/mL), values without †, read-out: IC50 (PRP, 95% CI).
The subject of series [3] is platelet rich plasma (PRP). To be noted: values marked † From Reference 7, read-out: IC50 (PRP, 95% CI); cited from earlier work.
In another series the test system is MMP-2. The experiment in a line: MMP-2 release during 59M-induced TCIPA by zymography. The format is cell-based, human. To be noted: 300 uM, P>0.05. As to the method: Sample collection was carried out as previously described (Jurasz et al., 2001; Medina et al., 2006). Briefly, platelets at a concentration of 2.5×10^8/ml were placed into lumi-aggregometer and tumor cells (59M) were added at 1×10^3/ml. When platelet aggregation reached 50% maximal light transmission the reaction was terminated and samples were collected. The samples were then centrifuged at 900×g at room temperature for 10 min. After centrifugation, platelet releasates were collected and stored at −80 C until assayed for the presence of MMP activity by zymography.
Gelatin zymography was used to detect the activity of MMP-2 in the releasates as previously described (Alonso-Escolano et al., 2004; Jurasz et al., 2001; Medina et al., 2006). Briefly, samples were subjected to 10% sodium dodecyl sulfate-polyacrylamide gel electrophoresis (SDS-PAGE) with copolymerized gelatin (0.2%; Sigma Chemical Co, St. Louis, Mo.) incorporated as a substrate for gelatinolytic proteases. […] The gelatinolytic activities were detected as transparent bands against the background of Coomassie blue-stained gelatin. The intensities of the separate bands were analyzed and quantified using ChemiDoc XRS System (Bio-Rad, Hercules, Calif., U.S.A.). The gelatinolytic activity of each band was expressed as arbitrary units of density/mg protein.

For the next series, the system named is washed platelet samples. The series is described as follows: Arachidonic acid-induced platelet aggregation. The format is cell-based, human. To be noted: n=4.
Series [4] is described as follows: Plasma pharmacokinetics of aspirin and metabolites after single oral gavage dose. It is filed as in vivo, cynomolgus monkey. To be noted: cynomolgus monkey, plasma, read-out: modeled AUC of Aspirin. As to the method: The objectives of this study are to determine the comparative clinical efficacy as determined by TxB2 suppression with single oral gavage dose administration of Aspirin, ST0702 and ST0702 Micronised to the cynomolgus monkey. Aspirin pharmacokinetics were compared using Area Under the Curve (AUC) calculations.
The objectives of this study are to determine the comparative pharmacokinetics of ST0702 at 9.6 and 4.8 mg/Kg with single oral gavage dose administration to the cynomolgus monkey and to determine dose-response effects.
Although the half life of the Isosorbide 2 salicylate 5 nicotinate metabolite is very short in-vitro, we investigated the serum taken from Cynomologus Monkeys participating in Study 2B above. The comparative pharmacokinetics of Isosorbide 2 salicylate 5 nicotinate from Monkeys receiving a single oral gavage dose of micronized ST0702 at 9.6 and 4.8 mg/Kg were evaluated. The concentrations of the breakdown products of ISANA were quantified using LCMS methods.
Animals are acclimated to the oral gavage procedure for at least 3 days prior to the commencement of dose formulation administration. Deionized water is administered by oral gavage using a disposable catheter attached to a plastic syringe at a dose volume of 5 mL/kg. Animals are treated at approximately the same time on each dosing day. Dose formulations are administered by oral gavage using a disposable catheter attached to a plastic syringe. Following each daily dose, the gavage tube is rinsed with 6 mL of Ultra Pure water into the animal's stomach. Each animal will be dosed with a clean gavage tube on each dosing occasion. The dosing volume is 10 mL/kg. Each actual volume administered will be based on the most recent practical body weight of each animal. The dose formulations will be stirred continuously during dose administration.
Samples are mixed gently and placed on crushed wet ice until centrifugation, which are carried out as soon as practical. The samples are centrifuged for approximately 10 minutes in a refrigerated centrifuge (approximately 4° C.) at 2700 rpm. The resultant plasma are separated, transferred to uniquely labeled clear polypropylene tubes, and frozen immediately over dry ice and transferred to a freezer set to maintain −80° C. The plasma samples are transferred to the bioanalytical laboratory at the Testing Facility.
Plasma samples are analyzed for concentration of Aspirin, Salicylic Acid and Nicotinic Acid using a qualified analytical procedure. Analysis are performed by LC MS/MS under Analytical Procedure. Data collection is performed using Analyst from AB Sciex. […]

For the next series, the system named is 59M cells. The series is described as follows: Flow-mediated TCIPA using an ultrasound standing wave trap. To be noted: 500 μM, 59M cell cluster. It is filed as cell-based, human. The text has this:
The ultrasound trap had three essential features: a transducer (Ferroperm, Kvistgard, Denmark) in a housing of radial symmetry, an aqueous phase and a reflector that provided optical access from above. The trap was driven with a function generator (Hewlett Packard 33120A, UK). Microscopic observation occurred with a fast, high-resolution XM10 camera (Soft Imaging System, SIS, GmbH) mounted on an Olympus BX51M reflection epi-fluorescence microscope. Images were captured by a standard PC equipped with the Cell-D image acquisition software (Soft Imaging System, SIS, GmbH).
The experimental procedure was as follows: 59M cells were introduced into the trap, the acoustic field (2.13 MHz, 0.85 MPa) was initiated and cell clusters were allowed to form. Clusters remained levitated in suspension for 10 min. Washed platelets (2.5×10^8/ml) were introduced into the trap at a flow rate of 3 μl/min. Perfusion of washed platelets around the cluster proceeded following initial adhesion of platelets to the periphery of the cluster.
To study the effect of aspirin and aspirin prodrugs in TCIPA, washed platelets were pre-incubated for 10 min at room temperature with the inhibitors: aspirin, nicotinate, ISAS, ISMNA, ortho and meta (all at a concentration of 500 μM), prior to their introduction into the ultrasound trap. […] The cell cluster-platelet aggregate remained under microscopic observation for further 10 min (the upper time limit established in the current study) under continuous flow conditions. Further experiments were performed with ST0702 salicylate (500 μM).

Take `CC(=O)Oc1ccccc1C(=O)O` [Aspirin]: the “inhibitory effect on platelet aggregation induced by U46619” value in series [1] is on record as “Neither aspirin nor the aspirin prodrugs had any inhibitory effect”. The IC50 in series [2] was 90 µM; in series [3] it was 92 µM. Also, the “release of pro-MMP-2 during platelet aggregation induced by 59M cells” value in the series with MMP-2 is “failed to prevent”. Moreover, in the series on washed platelet samples, the “effect on arachidonic acid (100 μM)-induced aggregation” value was “abolished”. In addition, the AUC in series [4] (oral, Phase 2B text, Aspirin 4.2 mg/Kg dose) stood at 923 ng·h/mL; in series [4] (Phase 2A, Aspirin 4.2 mg/Kg oral), 870 ng·h/mL.
As to `CC(=O)Oc1ccccc1C(=O)O[C@H]1CO[C@H]2[C@@H]1OC[C@H]2OC(=O)c1cccnc1` [ST0702, isosorbide-2-aspirinate-5-nicotinate], the “inhibition of TCIPA under flow conditions (platelet-tumour cell disruption)” value in the series with 59M cells was “significantly arrested TCIPA; also recorded: effectively inhibit”.
